# Key:
# Format in all cases: physicochemical
# [1] = HS-GC-MS quantification of headspace hexanal in PS80 solutions after storage; conditions: 10% PS80, RL of 100 ppb
# Protocol: (§1) Studies were performed to investigate oxidative degradation of PS20 and PS80 in aqueous solutions containing the antioxidants BHT or BHA. The following solutions were tested: • 1) polysorbate solutions of 10% (w/v) ± 0.02% (w/v) of the respective antioxidant, • 2) polysorbate solutions of 0.1% (w/v) ± 0.0002% (w/v) of the respective antioxidant. For solution 1), stabilized (containing the antioxidant BHT or BHA at a concentration of 0.2% (w/w)) and unstabilized (not containing any antioxidant) neat PS was diluted to a concentration of 10% (w/v) by adding 5 g of PS into a 50 mL volumetric flask and filling up to the 50 mL mark with H2O. The solution was stirred with a magnetic stirrer for about 20 minutes to ensure complete dissolution of PS. 5 ml of each solution was aliquoted into 6R vials. Each vial was closed with a stopper and a cap.
# (§2) Throughout the experiments, the solutions were subjected to three different conditions as follows: "T0": stored at -20°C for 7 weeks, "H2O2": stored at 25°C and 60% humidity for 7 weeks in the presence of hydrogen peroxide (H2O2) at a concentration of 10% (w/w) based on the molar ratio of used antioxidant. "Air": stored at 40°C and 75% humidity for 7 weeks and exposed to air (needle in vial stopper for free air exchange during incubation).
# GC-MS was used to quantify headspace hexanal levels for solutions of 10% PS (w/v) ± 0.02% (w/v) of the antioxidants BHT or BHA.
# The following HS-GC-MS conditions were applied: Headspace oven: 10 min at 80°C, Column: Agilent HP-5MS, 30 m x 250 micro M x 0.25 micro M; GC oven: 3 min at 35°C, then 20°C/min to 320°C, then 10 min at 320°C; column flow: 1.3 mL/min; MS: Full scan, m/z = 35 - 300. As a reference standard aqueous toluene solutions with concentrations between 0.1 ppm and 1 ppm in 10 mL H2O were prepared and directly analyzed by HS-GC-MS.
# 1 mL of each sample was transferred into a headspace vial with a volume of 20 mL, closed, and analyzed directly.
# Quantification was achieved by integration of the HS-GC-MS signals (TIC) and using a calibration curve obtained from the integrated HS-GC-MS signals (TIC) of the external reference toluene.
# Tentative identification of degradants was performed by comparing the mass spectrum of each GC-MS signal against the NIST14 standard reference database.
# The degradant most consistently identified by HS-GC-MS to show a value above the RL of 100 ppb was hexanal.
# [2] = LC-UV-MS quantification of free fatty acids in polysorbate solutions after storage
# Protocol: as §1, §2
# LC-UV-MS was used to quantify FFA levels in solutions of 10% PS (w/v) ± 0.02% (w/v) of the antioxidants BHT or BHA. The FFAs lauric acid, myristic acid and palmitic acid were quantified for PS20-containing solutions and palmitic acid, stearic acid and oleic acid were quantified for PS80-containing solutions. The RL for all FFAs was 50000 ppb.
# LC-UV-MS conditions were applied as in Example 2. Quantification of the FFAs was achieved by integration of the LC-MS signals at their corresponding ion trace (lauric acid = m/z 199.3; myristic acid = m/z 227.3; palmitic acid = m/z 255.3; stearic acid = m/z 283.3; oleic acid = m/z 281.3) in negative mode and using a calibration curve obtained from the integrated LC-MS signals of each corresponding ion trace of the external reference of lauric acid, myrisitic acid, palmitic acid, stearic acid and oleic acid. FFA reference standards in aqueous solutions at concentrations from 0.5 ppm to 5 ppm were prepared. All reference standard solutions were directly analyzed by LC-UV-MS.
# [3] = LC-UV-MS quantification of 4HNE in PS80 solutions after storage; conditions: 10% PS80; Air; 100-fold diluted; RL 50 micro M
# Protocol: as §1, with “cap. […]” for “cap.”
# LC-UV-MS was used to quantify 4HNE levels in solutions of 10% PS80 (w/v) ± 0.02% (w/v) of the antioxidants BHT or BHA. […]
# Quantification of 4HNE was achieved by integration of the LC-UV signals (lambda = 220 nm) and using a calibration curve obtained from the integrated LC-UV signals (lambda = 220 nm) of the external reference 4HNE. As a reference standard aqueous 4HNE solutions with concentrations between 0.05 ppm and 1 ppm were prepared and directly analyzed by LC-UV-MS. […]
# [4] = HPLC-FMA (fluorescence micelle assay), polysorbate concentration after storage; conditions: diluted to target 0.04% PS (w/v)
# Protocol: as §1
# For solution 2), 50 micro L of the 10% (w/v) PS solutions were transferred into 6R vials and filled up with 4.95 mL H2O to a final concentration of 0.1% (w/v) PS.
# as §2
# HPLC FMA was used to measure the concentration of polysorbate in solutions of 10% PS20 ± 0.02% (w/v) of the antioxidants BHT or BHA, solutions of 10% PS80 (w/v) ± 0.02% (w/v) of the antioxidants BHT or BHA, and solutions of 0.1% PS80 (w/v) ± 0.0002% (w/v) of the antioxidants BHT or BHA. Samples were diluted to the target concentration of 0.04% PS (w/v) prior to analysis.
# The following HPLC fluorescence detector conditions were applied: Column: knitted reaction coil L x I.D. 20mx 0.25mm, volume 1.0mL SUPELCO, ambient temperature; injection volume: 10 micro L; flow: 1.5 mL/min; isocratic 2min (A: 0.15M sodium chloride, 0.05 M L-histidine, pH = 6, 5%(v/v) acetonitrile, 5 micro M N-phenyl-1-naphtylamine (NPN), 15 ppm Brij® 35); FLD: lambda excitation = 350 nm, lambda emission = 420 nm, data mode: emission.
# Quantification of each sample type was performed by using 10% T0 samples for preparation of an external calibration curve from 0.02% to 0.06% PS.
# Empower 2 was used as software for quantification.
# The assay is based on the uptake of the fluorescent dye NPN by surfactant micelles using flow injection analysis and subsequent fluorescence detection. The dye is present in the mobile phase. In the lipophilic surrounding in the inside of the micelles the fluorescent signal is 10-fold higher than in aqueous mobile phase. Therefore, the concentration of polysorbate can be measured according to the formation of micelles and the uptake of the dye by the subsequent increase of the signal intensity.
SMILES,hexanal (headspace) ([1]; Air),hexanal (headspace) ([1]; H2O2),hexanal (headspace) ([1]; T0),"X = calculated fatty acid concentration in ppb, Lauric acid ([2]; 7 weeks, 0.02 % (w/v))","X = calculated fatty acid concentration in ppb, Myristic acid ([2]; 7 weeks, 0.02 % (w/v))","X = calculated fatty acid concentration in ppb, Oleic acid ([2]; 7 weeks, 0.02 % (w/v))","X = calculated fatty acid concentration in ppb, Stearic acid ([2]; 7 weeks, 0.02 % (w/v))",4HNE measured [3] [micro M],"X= calculated concentration in % of the average of 2 injections (polysorbate) ([4]; PS20 - 10%, Air) [%]","X= calculated concentration in % of the average of 2 injections (polysorbate) ([4]; PS80 - 0.1%, H2O2, RL 0.02%) [%]","X= calculated concentration in % of the average of 2 injections (polysorbate) ([4]; PS80 - 10%, Air, RL 0.02%) [%]","X = calculated fatty acid concentration in ppb, Lauric acid ([2]; PS20 - 10%, Air, RL 50000ppb)","X = calculated fatty acid concentration in ppb, Myristic acid ([2]; PS20 - 10%, Air, RL 50000ppb)","X = calculated fatty acid concentration in ppb, Oleic acid ([2]; PS80 - 10%, Air, RL 50000ppb)","X = calculated fatty acid concentration in ppb, Stearic acid ([2]; PS80 - 10%, Air, RL 50000ppb)"
"Cc1cc(C(C)(C)C)c(O)c(C(C)(C)C)c1 [BHT, butylated hydroxytoluene]",no hexanal could be detected,no hexanal could be detected,no hexanal could be detected,below 200000 ppb,around 50000 ppb,around 100000 ppb,around 60000 ppb,< 50,~0.04,~0.04,~0.04,–,–,–,–
"COc1ccc(O)c(C(C)(C)C)c1 [BHA, butylated hydroxyanisole]",no hexanal could be detected,no hexanal could be detected,no hexanal could be detected,–,–,–,–,< 50,~0.04,~0.04,~0.04,below 200000 ppb,around 50000 ppb,around 200000 ppb,around 60000 ppb
